Source: US10925876B2, “Methods for using triazolo-pyrazinyl soluble guanylate cyclase activators in fibrotic disorders” (Merck Sharp & Dohme Corp., priority 2016, dated 2021)

target: T1, sGC α1/β1 heterodimer (Homo sapiens, UniProt Q02108+Q02153); experiment: Cell-Based sGC Functional Assay (CASA Assay), cGMP generation in CHO-K1/sGC cells;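 further: reference Compound A is a published heme-dependent sGC activator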; conditions: maximum cGMP production of Compound A set to 100% activation, read-out: % Act. (percent activation relative to Compound A)
T1 construct: expressed in transfected cells
T1 sequence (Q02108 1-690): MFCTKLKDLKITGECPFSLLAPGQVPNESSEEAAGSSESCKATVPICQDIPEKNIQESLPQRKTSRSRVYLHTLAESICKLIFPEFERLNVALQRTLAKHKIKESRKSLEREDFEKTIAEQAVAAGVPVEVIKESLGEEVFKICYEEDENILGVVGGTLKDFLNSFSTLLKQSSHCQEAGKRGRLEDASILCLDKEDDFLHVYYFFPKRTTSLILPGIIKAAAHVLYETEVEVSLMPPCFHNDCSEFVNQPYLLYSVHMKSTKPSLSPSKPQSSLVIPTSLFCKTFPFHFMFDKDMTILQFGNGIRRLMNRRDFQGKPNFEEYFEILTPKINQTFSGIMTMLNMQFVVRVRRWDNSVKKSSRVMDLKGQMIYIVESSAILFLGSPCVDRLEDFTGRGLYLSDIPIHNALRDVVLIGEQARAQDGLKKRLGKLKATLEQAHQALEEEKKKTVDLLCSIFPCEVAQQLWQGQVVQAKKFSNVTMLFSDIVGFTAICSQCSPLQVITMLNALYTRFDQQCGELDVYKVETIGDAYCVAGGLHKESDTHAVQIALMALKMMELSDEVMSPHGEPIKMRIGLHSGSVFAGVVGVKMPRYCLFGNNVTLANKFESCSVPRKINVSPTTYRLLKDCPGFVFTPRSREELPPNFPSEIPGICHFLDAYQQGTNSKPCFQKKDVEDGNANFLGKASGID
T1 sequence (Q02153 1-619): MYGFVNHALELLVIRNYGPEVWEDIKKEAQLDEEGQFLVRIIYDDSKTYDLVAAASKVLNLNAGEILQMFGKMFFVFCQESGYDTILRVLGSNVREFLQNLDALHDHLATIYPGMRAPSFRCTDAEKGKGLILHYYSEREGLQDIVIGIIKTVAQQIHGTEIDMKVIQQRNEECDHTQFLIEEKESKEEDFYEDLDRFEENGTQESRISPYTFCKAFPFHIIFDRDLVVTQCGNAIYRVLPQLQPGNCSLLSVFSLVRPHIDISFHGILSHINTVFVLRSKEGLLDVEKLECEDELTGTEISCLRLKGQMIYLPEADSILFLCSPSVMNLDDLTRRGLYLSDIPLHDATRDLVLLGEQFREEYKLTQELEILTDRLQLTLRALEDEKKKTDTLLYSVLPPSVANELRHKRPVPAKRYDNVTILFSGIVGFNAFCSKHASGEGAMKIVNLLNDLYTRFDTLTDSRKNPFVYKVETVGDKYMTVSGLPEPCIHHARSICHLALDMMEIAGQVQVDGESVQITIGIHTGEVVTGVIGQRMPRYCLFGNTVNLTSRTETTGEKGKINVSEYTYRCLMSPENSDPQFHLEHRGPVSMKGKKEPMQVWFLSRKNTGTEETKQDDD
How it was run: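 CHO-K1 cells stably expressing human sGC α1/β1, 4×10^5/mL in EBSS with 5 mM MgCl2, 10 mM HEPES, 0.05% BSA, 0.5 mM IBMX, 2.5% DMSO; compounds 1 h at 37 °C ± 1 μM DETA-NO. cGMP by HTRF, expressed as % of reference Compound A maximum; IP and max fold induction from 4P fit.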

Emax [%] | Structure (SMILES)
96 | COc1ccc(C2(C)C(=O)Nc3nc(-c4cn5ncnc5c(CCCC(F)(F)F)n4)nc(O)c32)nc1 (stereo not shown) [Example 148A, 4-hydroxy-5-(5-methoxypyridin-2-yl)-5-methyl-2-(8-(4,4,4-trifluorobutyl)-[1,2,4]triazolo[1,5-a]pyrazin-6-yl)-5H-pyrrolo[2,3-d]pyrimidin-6(7H)-one]
63 | Cc1ccc(C2(C)C(=O)Nc3nc(-c4cn5ncnc5c(CCCC(F)(F)F)n4)nc(O)c32)nc1 (stereo not shown) [Example 149B, 4-hydroxy-5-methyl-5-(5-methylpyridin-2-yl)-2-(8-(4,4,4-trifluorobutyl)-[1,2,4]triazolo[1,5-a]pyrazin-6-yl)-5H-pyrrolo[2,3-d]pyrimidin-6(7H)-one]
74 | O=C1Nc2nc(-c3cn4ncnc4c(CCCC(F)(F)F)n3)nc(O)c2C1(c1ccc(F)cn1)C1CC1 (stereo not shown) [Example 150A, 5-cyclopropyl-5-(5-fluoropyridin-2-yl)-4-hydroxy-2-(8-(4,4,4-trifluorobutyl)-[1,2,4]triazolo[1,5-a]pyrazin-6-yl)-5,7-dihydro-6H-pyrrolo[2,3-d]pyrimidin-6-one]
73 | CCCCc1nc(-c2nc(O)c3c(n2)NC(=O)C3(C)c2ccc(C(F)(F)F)cn2)cn2ncnc12 (stereo not shown) [Example 159B, 2-(8-butyl-[1,2,4]triazolo[1,5-a]pyrazin-6-yl)-4-hydroxy-5-methyl-5-(5-(trifluoromethyl)pyridin-2-yl)-5H-pyrrolo[2,3-d]pyrimidin-6(7H)-one]
95 | CCCCc1nc(-c2nc(O)c3c(n2)NC(=O)C3(C)c2ccc(C)cn2)cn2ncnc12 (stereo not shown) [Example 161B, 2-(8-butyl-[1,2,4]triazolo[1,5-a]pyrazin-6-yl)-4-hydroxy-5-methyl-5-(5-methylpyridin-2-yl)-5H-pyrrolo[2,3-d]pyrimidin-6(7H)-one]
166 | CC1(c2ccc(F)cn2)C(=O)Nc2nc(-c3cn4ncnc4c(CCCC(F)(F)F)n3)ncc21 (stereo not shown) [Example 176B, 5-(5-fluoropyridin-2-yl)-5-methyl-2-(8-(4,4,4-trifluorobutyl)-[1,2,4]triazolo[1,5-a]pyrazin-6-yl)-5H-pyrrolo[2,3-d]pyrimidin-6(7H)-one]
55 | CC1(c2ccc(C(F)F)cn2)C(=O)Nc2nc(-c3cn4ncnc4c(CCCC(F)(F)F)n3)nc(O)c21 (stereo not shown) [Example 181B, 4-hydroxy-5-(5-(difluoromethyl)pyridin-2-yl)-5-methyl-2-(8-(4,4,4-trifluorobutyl)-[1,2,4]triazolo[1,5-a]pyrazin-6-yl)-5H-pyrrolo[2,3-d]pyrimidin-6(7H)-one]

Further lines, the compound ahead of its results:

Structure (SMILES) | Emax [%]
CC1(c2ccc(Cl)c(F)c2)C(=O)Nc2nc(-c3cn4ncnc4c(CCC(F)(F)F)n3)nc(O)c21 (stereo not shown) [Example 153B, 5-(4-chloro-3-fluorophenyl)-4-hydroxy-5-methyl-2-(8-(3,3,3-trifluoropropyl)-[1,2,4]triazolo[1,5-a]pyrazin-6-yl)-5H-pyrrolo[2,3-d]pyrimidin-6(7H)-one] | 104
CCCCc1nc(-c2nc(O)c3c(n2)NC(=O)C3(C)c2ccc(Cl)cc2)cn2ncnc12 (stereo not shown) [Example 157A, 2-(8-butyl-[1,2,4]triazolo[1,5-a]pyrazin-6-yl)-5-(4-chlorophenyl)-4-hydroxy-5-methyl-5H-pyrrolo[2,3-d]pyrimidin-6(7H)-one] | 161
C[C@@]1(c2ccc(F)cc2)C(=O)Nc2nc(-c3cn4ncnc4c(Cc4ccc(F)cc4)n3)nc(O)c21 [Example 162B, (S)-2-(8-(4-fluorobenzyl)-[1,2,4]triazolo[1,5-a]pyrazin-6-yl)-5-(4-fluorophenyl)-4-hydroxy-5-methyl-5H-pyrrolo[2,3-d]pyrimidin-6(7H)-one] | 100
CC(C)Cc1nc(-c2nc(O)c3c(n2)NC(=O)[C@@]3(C)c2ccc(F)cc2)cn2ncnc12 [Example 163A, (S)-5-(4-fluorophenyl)-4-hydroxy-2-(8-isobutyl-[1,2,4]triazolo[1,5-a]pyrazin-6-yl)-5-methyl-5,7-dihydro-6H-pyrrolo[2,3-d]pyrimidin-6-one] | 109
CCCc1nc(-c2nc(O)c3c(n2)NC(=O)C3(c2ccc(F)c(F)c2)C2CC2)cn2ncnc12 (stereo not shown) [Example 167A, 5-cyclopropyl-5-(3,4-difluorophenyl)-4-hydroxy-2-(8-propyl-[1,2,4]triazolo[1,5-a]pyrazin-6-yl)-5H-pyrrolo[2,3-d]pyrimidin-6(7H)-one] | 70
CCCc1nc(-c2nc(O)c3c(n2)NC(=O)C3(C)c2ccc(Cl)cc2)cn2nc(C)nc12 (stereo not shown) [Example 168A, 5-(4-chlorophenyl)-4-hydroxy-5-methyl-2-(2-methyl-8-propyl-[1,2,4]triazolo[1,5-a]pyrazin-6-yl)-5H-pyrrolo[2,3-d]pyrimidin-6(7H)-one] | 77
CC1(c2ccc(F)c(F)c2)C(=O)Nc2nc(-c3cn4ncnc4c(CCC(F)(F)C(F)(F)F)n3)nc(O)c21 (stereo not shown) [Example 169B, 5-(3,4-Difluorophenyl)-4-hydroxy-5-methyl-2-(8-(3,3,4,4,4-pentafluorobutyl)-[1,2,4]triazolo[1,5-a]pyrazin-6-yl)-5,7-dihydro-6H-pyrrolo[2,3-d]pyrimidin-6-one] | 116
CC1(c2ccccc2F)C(=O)Nc2nc(-c3cn4ncnc4c(CCC(F)(F)C(F)(F)F)n3)nc(O)c21 (stereo not shown) [Example 170A, 5-(2-Fluorophenyl)-4-hydroxy-5-methyl-2-(8-(3,3,4,4,4-pentafluorobutyl)-[1,2,4]triazolo[1,5-a]pyrazin-6-yl)-5,7-dihydro-6H-pyrrolo[2,3-d]pyrimidin-6-one] | 125
CCCCc1nc(-c2nc(O)c3c(n2)NC(=O)C3(C)c2cccc(F)c2)cn2ncnc12 (stereo not shown) [Example 171A, 2-(8-Butyl-[1,2,4]triazolo[1,5-a]pyrazin-6-yl)-5-(3-fluorophenyl)-4-hydroxy-5-methyl-5,7-dihydro-6H-pyrrolo[2,3-d]pyrimidin-6-one] | 90
C[C@@]1(c2ccc(F)cc2)C(=O)Nc2nc(-c3cn4ncnc4c(CCC(F)(F)C(F)(F)F)n3)ncc21 [Example 172A, (S)-5-(4-fluorophenyl)-5-methyl-2-(8-(3,3,4,4,4-pentafluorobutyl)-[1,2,4]triazolo[1,5-a]pyrazin-6-yl)-5,7-dihydro-6H-pyrrolo[2,3-d]pyrimidin-6-one] | 122
C[C@@]1(c2ccc(F)cc2)C(=O)Nc2nc(-c3cn4ncnc4c(CCC(F)(F)F)n3)ncc21 [Example 174A, (S)-5-(4-fluorophenyl)-5-methyl-2-(8-(3,3,3-trifluoropropyl)-[1,2,4]triazolo[1,5-a]pyrazin-6-yl)-5,7-dihydro-6H-pyrrolo[2,3-d]pyrimidin-6-one] | 133
CC1(c2ccc(Cl)cn2)C(=O)Nc2nc(-c3cn4ncnc4c(CCC(F)(F)C(F)(F)F)n3)ncc21 (stereo not shown) [Example 175A, 5-(5-chloropyridin-2-yl)-5-methyl-2-(8-(3,3,4,4,4-pentafluorobutyl)-[1,2,4]triazolo[1,5-a]pyrazin-6-yl)-5H-pyrrolo[2,3-d]pyrimidin-6(7H)-one] | 115
